Data from PubChem BioAssay (NCI).
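48-hour exposure; five concentrations; linearly interpolated endpoints. Abbreviation: GI50, concentration required for 50% inhibition of growth. TGI: total growth inhibition.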

Key:
Experiment in all cases: growth of human tumour cells (NCI), 48 h
CAKI-1 renal = system: CAKI-1 renal
EKVX NSCLC = system: EKVX NSCLC
K-562 leukemia = system: K-562 leukemia
NCI-H23 lung = system: NCI-H23 lung
OVCAR-4 ovarian = system: OVCAR-4 ovarian
RPMI-8226 leukemia = system: RPMI-8226 leukemia
SNB-75 CNS = system: SNB-75 CNS
SR leukemia = system: SR leukemia
U251 CNS = system: U251 CNS
LOX IMVI melanoma = system: LOX IMVI melanoma

Compound	GI50 (CAKI-1 renal) [µM]	TGI (CAKI-1 renal) [µM]	GI50 (EKVX NSCLC) [µM]	TGI (EKVX NSCLC) [µM]	GI50 (K-562 leukemia) [µM]	TGI (K-562 leukemia) [µM]	GI50 (NCI-H23 lung) [µM]	TGI (NCI-H23 lung) [µM]	GI50 (OVCAR-4 ovarian) [µM]	TGI (OVCAR-4 ovarian) [µM]	GI50 (RPMI-8226 leukemia) [µM]	TGI (RPMI-8226 leukemia) [µM]	GI50 (SNB-75 CNS) [µM]	TGI (SNB-75 CNS) [µM]	GI50 (SR leukemia) [µM]	TGI (SR leukemia) [µM]	GI50 (U251 CNS) [µM]	TGI (U251 CNS) [µM]	TGI (LOX IMVI melanoma) [µM]	GI50 (LOX IMVI melanoma) [µM]
CCN1C(=O)N(CC)C2C1NN=c1s/c(=C3\C(=O)N(CCC(C)C)c4ccccc43)c(=O)n12 (stereo not given)	0.686	4.17	1.34	> 100	0.586	> 100	1.9	5.47	1.02	> 100	1.68	5.77	0.802	2.5	0.456	> 100	1.88	9.81	–	–
CSc1nc(NC2OCC(OC(C)=O)C(OC(C)=O)C2OC(C)=O)c(N=CC=Nc2c(NC3OCC(OC(C)=O)C(OC(C)=O)C3OC(C)=O)nc(SC)n(C)c2=O)c(=O)n1C (stereo not given)	–	–	–	> 100	–	> 100	–	> 100	–	> 100	–	> 100	–	> 100	–	> 100	–	> 100	> 100	–
COc1cc2[nH]c(C(=O)c3cc(OC)c(OC)c(OC)c3)c(N)c2cc1C#CCO	0.537	> 100	–	–	0.347	> 100	0.508	> 100	0.528	> 100	1.64	83.6	–	–	0.284	19.8	0.431	> 100	21.5	0.502
CCC1CCc2nc3sc(C(=O)Nc4ccccc4F)c(N)c3cc2C1 (stereo not given)	0.768	> 100	–	–	0.402	> 100	> 100	> 100	> 100	> 100	0.94	> 100	2.16	> 100	0.284	38.1	> 100	> 100	> 100	7.66
CCN1C(C)=NC2C(=O)c3ccccc3C(=O)C21 (stereo not given)	–	–	–	–	–	> 100	–	> 100	–	62.7	–	> 100	–	> 100	–	> 100	–	> 100	> 100	–
O=C1C2CC3C(CC2C(=O)[N]1[Sn]([c]1ccccc1)([c]1ccccc1)[c]1ccccc1)C1(Cl)C(Cl)=C(Cl)C3(Cl)C1(Cl)Cl (stereo not given)	0.12	0.275	–	–	0.0492	0.754	0.15	0.388	0.0781	0.289	0.106	0.53	0.0347	0.19	0.102	0.532	0.119	0.252	0.184	0.0588
CC[O-].CC[O-].[O-]c1ccccc1C=Nc1ccccc1.[O-]c1ccccc1C=Nc1ccccc1.[Ti+4]	85.1	> 100	> 100	> 100	0.789	> 100	> 100	> 100	> 100	> 100	> 100	> 100	–	–	26.9	> 100	> 100	> 100	> 100	1.92
[N-]=[N+]=NC1(N=[N+]=[N-])C(=O)NN=C(c2ccccc2)C1=O (stereo not given)	–	–	–	> 100	–	> 100	–	> 100	–	> 100	–	> 100	–	> 100	–	75.5	–	> 100	92.9	–
C=C1C(=O)O[C@@H]2[C@H]1CC[C@H](C)[C@]1(O)CCC(=O)[C@@]21C	–	–	–	> 10	–	> 10	–	> 10	–	> 10	–	> 10	–	> 10	–	> 10	–	> 10	> 10	–
COC1=CC(=O)c2ccc(C(C)C)cc2C1(C)C1=NC(C)(C)CO1 (stereo not given)	–	> 100	–	> 100	–	> 100	–	> 100	–	> 100	–	> 100	–	> 100	–	> 100	–	> 100	–	–
Nc1ccccc1NC(=O)c1ccc(CSc2nc(N3CCOCC3)c3cccn3n2)cc1	–	–	1.08	> 100	0.312	> 100	1.52	> 100	2.47	> 100	0.311	1.26	0.32	15.6	0.301	> 100	0.565	5.61	3.22	0.49
